Results: ChEMBL document CHEMBL1201862, “PubChem BioAssay data set” (2004)
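Test compounds were applied to cells in 96-well plates for 48 hours at 5 doses. Here, GI50 denotes the concentration required for 50% inhibition of growth.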 Calls of active or inactive are those of the source. Cut-off read from the data, not from the text of the source: active = GI50 up to about 1.1 µM and inactive = higher.

Legend:
Experiment in all cases: NCI tumour cell line growth inhibition, 48 h
CCRF-CEM = system: CCRF-CEM
SK-MEL-2 = system: SK-MEL-2
ACHN = system: ACHN
SF-295 = system: SF-295
CAKI-1 = system: CAKI-1
OVCAR-3 = system: OVCAR-3
UACC-257 = system: UACC-257
A498 = system: A498
COLO 205 = system: COLO 205
BT-549 = system: BT-549
SW-620 = system: SW-620
SF-539 = system: SF-539
MDA-MB-231 = system: MDA-MB-231
U-251 = system: U-251
MDA-N = system: MDA-N
EKVX = system: EKVX
HOP-92 = system: HOP-92
A549 = system: A549
OVCAR-4 = system: OVCAR-4

Measured: GI50

O=C(CN1CCOCC1)c1ccc2c(c1)oc(=O)n2CCN1CCCC1
inactive: CCRF-CEM > 100 µM | SK-MEL-2 > 100 µM | ACHN > 100 µM | SF-295 > 100 µM | CAKI-1 > 100 µM | OVCAR-3 > 100 µM | UACC-257 > 100 µM | A498 > 100 µM | COLO 205 > 100 µM | BT-549 > 100 µM | SW-620 > 100 µM | SF-539 > 100 µM | MDA-MB-231 > 100 µM | U-251 > 100 µM | MDA-N > 100 µM | EKVX > 100 µM

COc1ccc(C2SC(=N)Nc3c2c(C)nn3C(=O)c2ccc(Cl)cc2)cc1 (centres undefined)
inactive: HOP-92 > 10 µM | CCRF-CEM > 10 µM | SK-MEL-2 > 10 µM | ACHN > 10 µM | A549 > 10 µM | OVCAR-4 > 10 µM | SF-295 > 10 µM | CAKI-1 > 10 µM | OVCAR-3 > 10 µM | UACC-257 > 10 µM | COLO 205 > 10 µM | BT-549 > 10 µM | SW-620 > 10 µM | SF-539 > 10 µM | MDA-MB-231 > 10 µM | U-251 > 10 µM | MDA-N > 10 µM | EKVX > 10 µM

O=C(NCc1ccc(Cl)cc1)c1cc2sccc2nc1C(F)(F)F
inactive: HOP-92 37.7 µM | CCRF-CEM > 100 µM | SK-MEL-2 50 µM | ACHN 20.6 µM | A549 34.2 µM | OVCAR-4 19.8 µM | SF-295 28 µM | CAKI-1 31.7 µM | OVCAR-3 26.9 µM | UACC-257 69 µM | COLO 205 > 100 µM | BT-549 39.9 µM | SW-620 54.2 µM | SF-539 27.7 µM | MDA-MB-231 31.3 µM | U-251 18.9 µM | MDA-N > 100 µM | EKVX 34 µM

CN1CCN(c2ccc3nc(-c4cc(O)c5c(nc(CO)n5C)c4O)[nH]c3n2)CC1
inactive: HOP-92 > 100 µM | CCRF-CEM 18.8 µM | SK-MEL-2 11 µM | ACHN 36.1 µM | A549 69.2 µM | OVCAR-4 19.5 µM | SF-295 > 100 µM | CAKI-1 > 100 µM | OVCAR-3 26.1 µM | UACC-257 34.7 µM | COLO 205 15.9 µM | BT-549 > 100 µM | SW-620 39.2 µM | SF-539 17.4 µM | MDA-MB-231 22.4 µM | U-251 15.1 µM | MDA-N 34.2 µM | EKVX 22.9 µM

CSc1c2c(C)n[nH]c2nn1-c1ccccc1
inactive: CCRF-CEM 33 µM | SK-MEL-2 > 100 µM | A549 > 100 µM | OVCAR-4 53.7 µM | CAKI-1 21.1 µM | OVCAR-3 39.3 µM | UACC-257 > 100 µM | A498 90.8 µM | COLO 205 62.2 µM | BT-549 80 µM | SW-620 57.1 µM | SF-539 40.4 µM | MDA-MB-231 18.4 µM | U-251 61.4 µM | MDA-N > 100 µM | EKVX 83.4 µM

Cc1cc2nc(N3C(=O)/C(=C/c4ccc(N(C)C)cc4)N=C3c3ccccc3)sc2cc1C
inactive: HOP-92 15.2 µM | CCRF-CEM 11.3 µM | SK-MEL-2 24.1 µM | ACHN 19.9 µM | A549 33.2 µM | OVCAR-4 29.4 µM | SF-295 33.6 µM | CAKI-1 43.9 µM | OVCAR-3 41.5 µM | UACC-257 27.2 µM | COLO 205 18 µM | BT-549 44.5 µM | SW-620 24.7 µM | SF-539 22.2 µM | MDA-MB-231 26 µM | U-251 32.7 µM | MDA-N 11.6 µM | EKVX 23 µM
